Experimental data published in patent publication US12569658B2, “Intranasal and olfactory delivery devices and methods of use” (Rocket Science Health Corp., priority 2023, dated 2026).

Assay: Lateralized olfactory delivery of oxytocin via cannula into the right nostril; brain distribution by mass spectrometry imaging (MSI)
Format: in vivo, Sprague-Dawley male rats
Conditions: for Blue Pixel Count (intensity corresponding to oxytocin): 30 mg/kg, 25 μL into right nostril, 2 hours, pixels with B-value exceeding 180
Protocol: Sprague-Dawley male rats (150˜250 g) n=3 per time point×2 time points were used in this study. Animals were fasted per facility protocols (free access to water). Sedation by 50 mg/kg pentobarbital or equivalent procedure and maintenance with isoflurane. Test article administration: The animal is kept supine with the head kept at an angle to minimize movement of the olfactory plane above zero degrees (to prevent gravity drainage into the olfactory cleft). In this study Oxytocin (30 mg/kg) was delivered via the canulated olfactory delivery model which is: a 0.699 mm diameter cannula with lipophilic ointment spread on the catheter which is carefully inserted into the right nostril with a minimal angle of 20° to the target of the correct meatus. The left nostril is occluded with a non-toxic quick setting compound to prevent cross contamination. During insertion the catheter is rotated gently to advance it through the tight nasal cavity. Once the catheter reaches the ethmoid turbinate it cannot be advance gently anymore (˜15 mm). 25 μL of oxytocin is slowly instilled in the olfactory region (FIGS. 23A-B). The animals were kept sedated for 2 hours. After 2 hours, the animals were humanely euthanized by cervical dislocation. Sample collection: Olfactory bulb and brain: Rats olfactory bulb and brain were collected and snap-freeze in liquid nitrogen. The tissue was stored at −80 C until analysis. Sample Preparation: Olfactory bulb and brain samples was homogenized with ice-cold phosphate buffer saline (pH 7.4) at a ratio of 4 (buffer): 1 (tissue) (v/w). An aliquot of 20 μL homogenate was spiked into 1.5 mL tube, and 100 μL of acetonitrile containing internal standard were added for protein precipitation. The mixture was vortexed, centrifuged at 14000 rpm for 5 min. 80 μL supernatant was transferred into a 96 well plate, and 240 μL of sterile deionized water was added, the mixture was vortexed and injected for LC-MS/MS analysis.
Sample analysis: Test compound in olfactory bulb, brain, and plasma samples will be analyzed by LC/MS/MS. Calibration curve was constructed in blank olfactory bulb homogenate. Using a High-throughput RapifleX MALDI-TOF/TOF mass spectrometer the samples were analyzed utilizing non-labeled detection technologies. This is important as this technique explores the regional distribution patterns of target molecule (FIG. 24). The frozen section of brain tissue was cut into 12 μm sections. Oxytocin at 200, […], 50, 20, 10, 5, 2 ng were used as standard in blank brain slide. And substrate were sprayed on the slides. The sample of the tissue section was ionized and desorbed with the substrate under the excitation of the laser beam. The released ions were identified with mass spectrometer. The detection levels were 2.68 ng/mm^2 (FIGS. 25A-D). To visualize the lateralized drug transfer through the brain the brain was sectioned into olfactory bulb, striatum and cerebrum sections (FIG. 26) and imaged with the Mass Spectrometry Imaging (MSI) system.
The images shown in FIGS. 27A-C were analyzed to estimate the relative concentration of oxytocin on each side of the brain. Image data was converted into a standard RGB color-map, with each of the red (R), green (G), and blue (B) values taking a value between 0 and 255. Pixels with B-values exceeding 180 were counted on each side of the brain, yielding the results in Table 1.

## CC[C@H](C)[C@@H]1NC(=O)[C@H](Cc2ccc(O)cc2)NC(=O)[C@@H](N)CSSC[C@@H](C(=O)N2CCC[C@H]2C(=O)N[C@@H](CC(C)C)C(=O)NCC(N)=O)NC(=O)[C@H](CC(N)=O)NC(=O)[C@H](CCC(N)=O)NC1=O [oxytocin, Oxytocin]
Cerebrum, 921/638
  ratio of blue pixels, targeted over untargeted half of the brain: 1.44
Cerebrum, Left hemisphere (untargeted)
  Blue Pixel Count (intensity corresponding to oxytocin): 638
Cerebrum, Right hemisphere (targeted)
  Blue Pixel Count (intensity corresponding to oxytocin): 921
Olfactory, 962/475
  ratio of blue pixels, targeted over untargeted half of the brain: 2.03
Olfactory, Left hemisphere (untargeted)
  Blue Pixel Count (intensity corresponding to oxytocin): 475
Olfactory, Right hemisphere (targeted)
  Blue Pixel Count (intensity corresponding to oxytocin): 962
Striatum, 7055/4085
  ratio of blue pixels, targeted over untargeted half of the brain: 1.73
Striatum, Left hemisphere (untargeted)
  Blue Pixel Count (intensity corresponding to oxytocin): 4085
Striatum, Right hemisphere (targeted)
  Blue Pixel Count (intensity corresponding to oxytocin): 7055
Across the three studied regions (Cerebrum, Olfactory, Striatum)
  excess drug concentration on the targeted side of the brain: 44-103%
Cerebrum slice
  distribution of oxytocin by MSI (FIG. 27C): lateralization coinciding with the targeted (right) hemisphere
Olfactory bulb slice
  distribution of oxytocin by MSI (FIG. 27A): preferential right side distribution
Striatum slice
  distribution of oxytocin by MSI (FIG. 27B): continued preferential right side distribution
